In US20220211858A1, “TUBULAR SUPRAMOLECULAR POLYMERS” (priority 2019, published 2022):

Key:
[1] = Encapsulation of hydrophobic dyes and paclitaxel in TT 1 nanotubes; type: physicochemical
Protocol: A 300 μM in water stock solution of TT 1 prodrug was prepared and aged overnight to form nanotubes. Hydrophobic dyes, such as Coumarin 6 (C6), Nile Red, Rose Bengal lactone (Rose), and IR 780 iodide (IR 780), were dissolved in acetonitrile at a concentration of 600 μM (FIG. 18). To perform the dye encapsulation experiments, 400 μL of the pre-formed nanotube solution and 200 μL of the corresponding dye solution in acetonitrile were mixed together to make a final solution of 600 μL (H2O/MeCN=2:1, v/v) in which the concentration of both prodrug and dye was 200 μM (prodrug/dye=1:1, mol/mol). The resulting mixed nanotube and dye solution was aged overnight to allow the penetration of dye molecules into the nanotube structures and then directly lyophilized to fully remove all the solvents. Next, the lyophilized powder was reconstituted to a final prodrug concentration of 200 μM by the addition of 600 μL of water and vortexing for 60 s. The solutions were aged for at least 6 h before being centrifuged (6000 rpm, 5 min) to remove any precipitated free dye. The supernatant was collected for further study. The dye loading capacity was calculated from the percentage of dye in the supernatant to the sum of encapsulated dye and added prodrugs. To get a higher resolution of dye-doped TT 1 solution, the solutions imaged in FIG. 4A were concentrated to a concentration of 800 μM.
In addition to functional dye molecules, the hydrophobic drug paclitaxel (PTX) was also used as a model compound to dope the TT 1 nanotubes, following the procedure described in the paragraph describing CD measurements of TT solutions above. After encapsulation, analytical HPLC was used to analyze the components of drug-doped nanotubes, monitoring the absorption at 220 nm. […] The concentrations of both nanotube and PTX were determined by comparing the area under the curve of each component with its standard calibration curve, yielding an encapsulation efficiency around 11%. The CD spectrum of PTX-doped nanotube was also recorded, showing a slight decrease in intensity compared with a pure nanotube solution at the same concentration (FIG. 17B).

[2] = Maximum tolerated dose (MTD) dose escalation study; parameters: species or system athymic nude mice; settings: female, athymic nude, mouse, in vivo, intravenous, three doses, four days a dose; ½ of single-injection MTD; read-out: MTD of multiple injections
[3] = Drug release from TT 1 nanotubes with or without GSH; type: physicochemical; settings: 200 μM
Protocol: The release of free CPT from TT 1 nanotubes was evaluated in the presence or absence of GSH. Stock solutions of 400 μM of TT 1 in deionized water were prepared and diluted to 200 μM with 20 mM PBS buffer with or without GSH (20 mM). Three replicate experiments were prepared together for both conditions. The solutions were incubated at 37° C. and samples were collected at 0 min, 10 min, 20 min, 30 min, 1 h, 2 h, 4 h, 6 h, 8 h, 12 h and 24 h. For each collected sample, the reductive release was halted by acidification of the solution through the addition of 0.2 μL of 2M HCl. Samples were then frozen with liquid nitrogen and stored at −30° C. until analysis. The amount of released CPT was monitored by RP-HPLC using the following conditions: Varian Pursuit XRs C18 (5 μm, 150×4.6 mm); 362 nm detection wavelength; 1 ml/min flow rate; the gradient began at 90% of mobile phase A (0.1% aqueous TFA) and 10% of mobile phase B (acetonitrile containing 0.1% TFA) increasing to 90% mobile phase B by 15 min and held for another 1 min before decreasing to the initial solvent composition at 20 minutes. Selected time points were characterized and data were plotted as a percentage of the total expected CPT concentration.

[4] = test system: human glioblastoma U87 MG cells; assay: Antitumor efficacy study for systemic delivery, subcutaneous U87 MG tumor; type: in vivo, athymic nude mice; settings: for mean tumor volume: three weeks after treatment
Protocol: A total of 2×10^6 human glioblastoma U87 MG cells were subcutaneously injected into the right shoulder of athymic nude mice (8-9 weeks old). The mice were used for the efficacy study after three to four weeks when the tumor had reached about 190-250 mm^3 in size. […]. Water insoluble free CPT was dissolved/suspended in a mixture of DMSO/ethanol/PEG-400/water (1:1:2:1). CPT (4.5 mg/kg) and irinotecan (60 mg/kg) were administered by intraperitoneal injection, while freshly prepared TT 1 solutions of various doses were administered intravenously by tail vein injection every 4 days for a total of three doses (days 1, 5, and 9). […]. Tumor volumes were measured and recorded every other day. The body weights were measured and recorded every day or every other day. The tumor volume was determined by measuring the tumor in two dimensions with calipers and using the formula “tumor volume=(length×width^2)/2”. Each animal was euthanized once the tumor volume reached the predetermined end point size of 2000 mm^3.

In the case of `CC[C@]1(OC(=O)OCCSSC[C@@H](NC(C)=O)C(=O)N[C@@H](CCCCNC(=O)[C@@H](CSSCCOC(=O)O[C@]2(CC)C(=O)OCc3c2cc2n(c3=O)Cc3cc4ccccc4nc3-2)NC(C)=O)C(=O)N[C@@H](CCCCNC(=O)CCOCCOCCOCCOCCOC)C(=O)N[C@@H](CCCCNC(=O)CCOCCOCCOCCOCCOC)C(N)=O)C(=O)OCc2c1cc1n(c2=O)Cc2cc3ccccc3nc2-1` [TT 1], the dye loading content ([1]; Coumarin 6 (C6) in TT 1 assemblies) is reported as 4.5%, the dye loading content ([1]; IR-780 in TT 1 assemblies) is reported as 10.3% and the dye loading content ([1]; Nile Red in TT 1 assemblies) is reported as 4.4%. For the same compound, the dye loading content ([1]; Rose Bengal lactone in TT 1 assemblies) was 14.8%, the MTD [2] was 12 mg/kg and the “conjugated CPT released” value ([3]; 10 mM GSH, 37° C., by 6 h) was about 100%. For the same compound, the “conjugates degraded (hydrolysis)” value ([3]; without GSH, 24 h) was “less than 10%”, the median survival ([4]; TT 1 4.5 mg/kg (CPT equivalent) i.v. days 1, 5, 9) was 23 days and the tumor volume ([4]; TT 1 4.5 mg/kg, up to 15 days) was 417 mm^3. For the same compound, the “survival of four out of five mice” value ([4]; TT 1 9 mg/kg) was “up to 37 d”, the median survival ([4]; TT 1 9 mg/kg i.v. days 1, 5, 9) was 37 days and the mean tumor volume ([4]; TT 1 9 mg/kg) was 94 mm^3. For the same compound, the “survival of four out of five mice” value ([4]; TT 1 15 mg/kg) was at most 43 days, the median survival ([4]; TT 1 15 mg/kg i.v. days 1, 5, 9) was 43 days and the mean tumor volume ([4]; TT 1 15 mg/kg) was 59 mm^3.
